The values below come from ChEMBL document CHEMBL1201862, “PubChem BioAssay data set” (2004).

Activity calls are given as the source filed them.

Assay [1] in a line: viability loss in MITF-independent A375 cells – cell-based, CellTiter-Glo luminescence, dry powder, set 2, counter-screen for MITF inhibitor project, dose response (AID 624489).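 Further: actives are compounds lowering A375 viability meaning general cytotoxicity.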 It is filed as functional. The note with it: A-375. On the technique in general: In ATP-based viability assays light output follows the ATP content of the culture.
Assay [2] can be described thus: cytotoxicity in MITF-independent A375 cells – cell-based, CellTiter-Glo luminescence, dry powder, set 4, counter-screen for MITF inhibitor project, dose response (AID 624364).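 Further: A375 melanoma cells are MITF independent so this is a counter screen.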 It is filed as functional. The note with it: A-375.
Assay [3] in a line: cells.
The target in assay [4] is T1, Oxysterols receptor LXR-beta (Homo sapiens, UniProt P55055).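 Further: Cell-based luminescence dose-response assay of agonist activity at LXR, run as a confirmatory counterscreen to a daf-12 agonist screen; HEK293 cells with Gal4-LXR fusion and GAL4-driven luciferase reporter; agonist potency from rising luciferase signal of a Gal4-LXR reporter.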
T1 sequence (P55055 whole entry): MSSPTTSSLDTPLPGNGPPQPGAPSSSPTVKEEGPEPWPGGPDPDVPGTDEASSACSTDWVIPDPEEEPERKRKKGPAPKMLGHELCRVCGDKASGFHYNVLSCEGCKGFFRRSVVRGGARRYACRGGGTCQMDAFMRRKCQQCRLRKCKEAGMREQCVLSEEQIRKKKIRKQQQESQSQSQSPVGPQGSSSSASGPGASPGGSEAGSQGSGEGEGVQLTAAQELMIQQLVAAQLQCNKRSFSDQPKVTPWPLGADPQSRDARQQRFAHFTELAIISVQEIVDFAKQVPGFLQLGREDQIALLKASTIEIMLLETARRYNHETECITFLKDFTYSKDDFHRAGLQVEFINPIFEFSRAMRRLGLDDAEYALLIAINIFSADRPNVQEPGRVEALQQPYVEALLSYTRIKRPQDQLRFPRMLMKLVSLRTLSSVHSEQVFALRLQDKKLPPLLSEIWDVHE
It is filed as functional, cell-based.

Assay [5] in a line: alpha-synuclein stem-loop translation blockers – luminescence, H4 neuroglioblastoma cells, dose confirmation, confirmation (AID 2454).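 Further: H4 neuroglioblastoma cells carrying an alpha-synuclein 5'UTR luciferase reporter; potency for inhibition of the luciferase signal.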 The assay is classed as functional, cell-based.
Assay [6] in a line: luciferase reporter signal suppression in cells – H4 neuroglioma cells, luminescence, dose response (AID 1990). The assay is classed as functional, cell-based.
Assay [7] deals with BJ. Put plainly: cells. It is filed as functional, cell-based. The settings on record: Homo sapiens.
A short description of assay [8]: toxicity toward HEK293 cells – cell-based, dry powder samples, cytotoxicity control, dose response (AID 720567). The assay is classed as functional.
Assay [9] in a line: luciferase reporter signal reduction – luminescence, H4-C neuroglioblastoma cells, dose response (AID 2458).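 Further: H4 neuroglioblastoma cells stably carrying a luciferase reporter gene fusion.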 The assay is classed as functional, cell-based.
Assay [10] can be described thus: DRD fibroblast viability loss – cell-based, non-viral oncogenic, luminescence, dose response (AID 1934). The note with it: Homo sapiens. The assay is classed as functional.
The nature of assay [11]: cells. It is filed as functional, cell-based.
In assay [12] the test system is BJ. The assay is described as follows: BJ-TERT fibroblast viability loss – cell-based, RAS-independent, luminescence, dose response (AID 1933). The assay is classed as functional. The settings on record: Homo sapiens.
Assay [13] is described as follows: alpha-synuclein stem-loop luciferase translation blockers – H4 neuroglioma cells, luminescence, confirmation (AID 1988). The assay is classed as functional, cell-based.
The subject of assay [14] is BJ. Put plainly: BJ-TERT-LT-ST fibroblast viability loss – cell-based, RAS-independent, luminescence, dose response (AID 1935).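 Further: BJ fibroblasts immortalized with TERT plus LT and ST oncogenes.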 The assay is classed as functional. The note with it: Homo sapiens.
The target of assay [15] is RNA-editing ligase 1, mitochondrial (Trypanosoma brucei brucei, UniProt P86926). The assay is described as follows: inhibition of trypanosome RNA editing ligase – biochemical, fluorescence, Trypanosoma brucei, dose response (AID 1117295). The assay is classed as functional.
Assay [16] in a line: toxicity to human HepG2 hepatoma cells – cell-based, plate reader, dry powder samples, cytotoxicity control, dose response (AID 1159569).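 Further: inhibitor potency with signal falling toward the positive control level.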 It is filed as functional.
Assay [17] in a line: toxicity to human hepatoma HepG2 cells – cell-based, cherry-picked samples, cytotoxicity control, dose response (AID 1159577). It is filed as functional.
Assay [18] in a line: P. falciparum Dd2 growth inhibitors, dose response, SYBR Green, cherry-picked samples (AID 1159567). The assay is classed as functional, cell-based.
Assay [19] is described as follows: growth inhibition of PfATP4-mutant resistant parasites – NITD609-resistant line, SYBR Green, dry powder, dose response (AID 1159571).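 Further: parasites synchronized at ring stage by sorbitol before testing.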 It is filed as functional, cell-based.
Assay [20] in a line: growth inhibition of yeast DHODH-expressing 3D7 parasites – SYBR Green, dry powder samples, dose response (AID 1159570).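 Further: parasite growth measured after 72 hours of compound exposure.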 The assay is classed as functional, cell-based.
The nature of assay [21]: Dd2 malaria parasite growth inhibition potency – SYBR Green, dry powder samples, dose response (AID 1159566).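 Further: potency for growth inhibition with lower SYBR green DNA signal.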 It is filed as functional, cell-based.
Assay [22] has as its target T2, NAD-dependent protein deacylase sirtuin-5, mitochondrial (Homo sapiens, UniProt Q9NXA8). Put plainly: sirtuin-5 deacylation blockers, concentration series – biochemical, fluorescence imaging, cherry-pick, set 5, dose response (AID 720591).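 Further: desuccinylation of succinyl peptide AMC substrate read as fluorescence after trypsin release; potency of inhibitors that lower fluorescence and may act on trypsin instead.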
Assay [23] is described as follows: Luminescence Cell-Based Dose Response HTS to Identify Inhibitors of 5'UTR Stem-Loop Driven Prion Protein mRNA Translation in H4 Neuroglioblastoma Cells. [Related pubchem assays: 1827 (Project Summary), 1813 (Primary HTS)]. It is filed as functional.
The target in assay [24] is T3, Disintegrin and metalloproteinase domain-containing protein 17 (Homo sapiens, UniProt P78536). The assay is described as follows: exosite inhibitors of ADAM17, dose response, biochemical (AID 743260).
In assay [25] the target is T3, Disintegrin and metalloproteinase domain-containing protein 17. Put plainly: inhibition of ADAM17 substrate cleavage – biochemical, quenched FRET substrate, counter-screen for ADAM10 exosite inhibitor project, dose response (AID 743253). On the technique in general: The purpose of a counterscreen is to sort out artefacts and off-target activity.
The nature of assay [26]: potency of ADAM10 substrate cleavage blockers – biochemical, QFRET, dose response (AID 743254).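 Further: ADAM10 enzyme with the DM2 quenched FRET peptide as substrate; EDANS fluorescence gain as the protease cuts the substrate; inhibitor potency against ADAM10 proteolytic activity.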
For assay [27], the target named is T2, NAD-dependent protein deacylase sirtuin-5, mitochondrial. Put plainly: blockers of sirtuin-5 peptide desuccinylation – biochemical, fluorescence imaging, cherry-pick, set 6, dose response (AID 720597).
Assay [28] is described as follows: IGROV1 cell killing – plate reader, dry powder samples, PAX8 inhibitor project, dose response (AID 743043). The assay is classed as functional, cell-based. The note with it: IGROV-1.
For assay [29], the target named is Paired box protein Pax-8 (Homo sapiens, UniProt Q06710). The assay is described as follows: PAX8 transcriptional activity inhibition in RMG-I – RMG-I cells, luciferase, cherry-pick, dose response (AID 687027).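 Further: luciferase reporter driven by Pax8 target thyroperoxidase promoter measured by SteadyGlo luminescence.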 It is filed as functional, cell-based.
Assay [30] in a line: toxicity toward immortalized ovarian surface epithelium – cell-based, plate reader, dry powder samples, cytotoxicity control for PAX8 inhibitor project, dose response (AID 743045). The assay is classed as functional.
A short description of assay [31]: OVCAR-3 cell viability loss – plate reader, dry powder samples, PAX8 inhibitor project, dose response (AID 743044). The assay is classed as functional, cell-based.
Assay [32] can be described thus: OVCAR8 cell viability loss – plate reader, dry powder samples, PAX8 project, dose response (AID 743197). It is filed as functional, cell-based. The settings on record: OVCAR-8.
Assay [33] in a line: A2780 cell killing – plate reader, dry powder samples, cytotoxicity control, dose response (AID 743046). The assay is classed as functional, cell-based.

What is called AC50 is the midpoint of the concentration-response curve, whichever way the signal moves. As usually defined, the EC50 is the concentration needed to bring the measured effect to its halfway point. The term IC50 denotes the midpoint of a concentration-inhibition curve.

T3 sequence (P78536 whole entry, the tested form may be a part): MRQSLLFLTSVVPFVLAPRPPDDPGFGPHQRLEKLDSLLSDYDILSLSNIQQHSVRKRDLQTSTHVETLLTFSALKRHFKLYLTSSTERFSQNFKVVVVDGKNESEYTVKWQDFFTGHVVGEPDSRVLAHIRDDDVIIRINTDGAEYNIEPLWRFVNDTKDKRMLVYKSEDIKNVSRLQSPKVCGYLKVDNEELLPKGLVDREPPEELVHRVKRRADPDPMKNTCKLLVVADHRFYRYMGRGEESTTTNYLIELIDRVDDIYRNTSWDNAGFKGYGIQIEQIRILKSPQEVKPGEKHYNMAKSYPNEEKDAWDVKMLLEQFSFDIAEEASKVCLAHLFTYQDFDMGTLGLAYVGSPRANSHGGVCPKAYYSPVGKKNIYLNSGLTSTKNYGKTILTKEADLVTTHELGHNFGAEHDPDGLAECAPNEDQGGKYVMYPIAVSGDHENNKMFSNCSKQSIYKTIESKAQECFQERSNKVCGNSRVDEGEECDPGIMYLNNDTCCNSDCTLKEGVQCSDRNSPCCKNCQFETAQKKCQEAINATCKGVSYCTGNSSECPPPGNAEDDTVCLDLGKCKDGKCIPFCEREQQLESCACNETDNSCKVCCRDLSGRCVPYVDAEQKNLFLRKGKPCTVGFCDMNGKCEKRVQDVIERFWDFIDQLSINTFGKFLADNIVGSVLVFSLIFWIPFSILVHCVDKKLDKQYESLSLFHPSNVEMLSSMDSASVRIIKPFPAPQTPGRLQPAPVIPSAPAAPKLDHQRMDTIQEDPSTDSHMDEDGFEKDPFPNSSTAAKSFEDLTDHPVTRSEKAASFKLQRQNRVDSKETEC
T2 sequence (Q9NXA8 whole entry): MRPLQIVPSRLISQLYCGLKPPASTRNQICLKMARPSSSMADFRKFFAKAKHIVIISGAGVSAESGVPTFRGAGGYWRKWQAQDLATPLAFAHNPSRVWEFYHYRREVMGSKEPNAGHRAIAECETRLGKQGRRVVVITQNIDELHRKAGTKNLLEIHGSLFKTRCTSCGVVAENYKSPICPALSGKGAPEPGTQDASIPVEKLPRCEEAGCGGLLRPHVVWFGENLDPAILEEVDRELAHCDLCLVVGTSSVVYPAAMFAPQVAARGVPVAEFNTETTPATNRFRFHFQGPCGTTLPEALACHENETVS
RNA-editing ligase 1, mitochondrial, sequence (P86926 whole entry): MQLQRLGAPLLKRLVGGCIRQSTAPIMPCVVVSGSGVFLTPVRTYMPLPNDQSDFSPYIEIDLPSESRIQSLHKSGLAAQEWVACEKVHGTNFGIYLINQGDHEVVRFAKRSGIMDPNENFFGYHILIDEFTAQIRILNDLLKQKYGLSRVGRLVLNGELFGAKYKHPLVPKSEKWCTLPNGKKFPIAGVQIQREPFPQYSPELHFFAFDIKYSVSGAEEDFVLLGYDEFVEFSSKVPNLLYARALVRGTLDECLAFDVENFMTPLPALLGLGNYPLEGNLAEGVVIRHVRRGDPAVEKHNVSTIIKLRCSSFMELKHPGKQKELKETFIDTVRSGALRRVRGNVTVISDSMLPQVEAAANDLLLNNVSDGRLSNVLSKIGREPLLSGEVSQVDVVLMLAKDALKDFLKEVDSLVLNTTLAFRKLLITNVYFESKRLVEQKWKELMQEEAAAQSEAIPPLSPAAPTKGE
Paired box protein Pax-8, sequence (Q06710 whole entry): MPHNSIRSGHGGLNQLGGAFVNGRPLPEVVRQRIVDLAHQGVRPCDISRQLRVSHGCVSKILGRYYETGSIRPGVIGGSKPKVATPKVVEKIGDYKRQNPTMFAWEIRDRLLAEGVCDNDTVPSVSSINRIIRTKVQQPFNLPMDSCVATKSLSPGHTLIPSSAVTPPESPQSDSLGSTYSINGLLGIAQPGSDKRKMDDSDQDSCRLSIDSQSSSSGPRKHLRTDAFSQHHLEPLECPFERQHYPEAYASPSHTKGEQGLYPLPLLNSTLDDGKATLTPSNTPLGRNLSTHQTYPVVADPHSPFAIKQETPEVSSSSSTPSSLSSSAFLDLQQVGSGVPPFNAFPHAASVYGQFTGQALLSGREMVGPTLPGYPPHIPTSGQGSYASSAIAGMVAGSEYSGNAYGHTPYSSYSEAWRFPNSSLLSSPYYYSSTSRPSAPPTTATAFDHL

Regarding `CCN1CCN(C2=C(N(C)C(C)=O)C(=O)c3ccccc3C2=O)CC1`, the values for the AC50 in assay [1] and in assay [2] were 6.2 µM (active) and 12.4 µM (active), respectively.
With `N=C(NC(=S)Nc1ccc2c(c1)OCO2)c1ccccc1`, the EC50 in [3] and in [4] was > 67.5 µM (inactive) in each case.
As to `COc1ccc(NC(=O)C(=O)c2cn(CC(=O)N3CCCC3)c3ccccc23)cc1`, the EC50 in assay [5] was 681 nM (active); in [6] it was 0.269 µM (inconclusive); in assay [7], 1.54 µM (active); in assay [9] it was 323 nM (active); in assay [10] it was 2.25 µM (active); in assay [11] it was 515 nM (active). For the same compound, the EC50 in [12] is 2.77 µM (active); in [13] it was < 100 nM (active); in assay [14], 2.34 µM (inconclusive). The AC50 in [8] was 0.143 µM (active).
Take `COC(=O)C1=C(C)N(Cc2ccccc2C(F)(F)F)C(NCc2ccccc2)=NC1CCc1ccccc1` (stereo not given): the IC50 in assay [15] was > 96.6 µM (inactive).
On the same count and under the same terms, the same measure for `NC(=O)[C@H]1CC2(CC(c3cccc(NC(=O)[C@H]4CCC(=O)N4)c3)=NO2)CN1C(=O)c1ccccc1` (stereo not given in full): 19.7 µM (inactive).
As for `COc1ccccc1S(=O)(=O)N(C)C[C@@H]1OCc2ccccc2-c2c(n(C)c3ccccc23)C(=O)N([C@H](C)CO)C[C@@H]1C`, the AC50 was 89.2 µM (active) in assay [16]; 36.7 µM (active) in assay [17]; 729 nM (active) in assay [18]; 548 nM (active) in assay [19]; 561 nM (active) in assay [20]; 423 nM (active) in assay [21].
For the compound `COc1ccc(CC(=O)Nc2ccc(S(=O)(=O)N3CCN(C)CC3)cc2)cc1`, the AC50 in assay [22] is > 30 µM (inactive).
As for `O=C(N/N=C/c1ccc(Cl)cc1)c1sccc1OCc1ccc(F)cc1`, the concentration for a half-maximal effect (EC50) in assay [5] was > 3800 nM (not active); in [6] it was 10.2 µM (active); in assay [9] it was 889 nM (active); in [11], 1300 nM (active); in assay [13], < 100 nM (active); in assay [23], < 100 nM (active). The AC50 in assay [8] was 22.3 µM (active).
For `COc1ccc(N(CC(O)Cn2c3ccccc3c3ccccc32)S(=O)(=O)c2ccccc2)cc1` (stereo not given), the IC50 in assay [24], in assay [25] and in assay [26] was > 69.5 µM (inactive) in each case.
For `O=C(C[C@@H]1C[C@H]2c3cc(NS(=O)(=O)c4ccc(F)cc4)ccc3O[C@H]2[C@H](CO)O1)NCc1ccc(-c2ccccc2)cc1`, the AC50 in assay [27] is > 30 µM (inactive); in [28], 14.6 µM (active); in [29], 3.44 µM (active); in assay [30], 17.6 µM (active); in [31], 9.15 µM (active); in assay [32], 14.8 µM (active). Moreover, the AC50 in assay [33] is 10.6 µM (active).
